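Results reflect a 48-hour exposure of cells in 96-well plates to compound at five concentrations. GI50: concentration for 50% inhibition of growth.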 Active and inactive are the calls of the source. Cut-off read from the data, not from the text of the source: active = GI50 up to about 1.1 µM and inactive = higher.
Assays:
Assay in all cases: growth of human tumour cells (NCI), 48 h
[1] = tested on: SN12C
[2] = tested on: CCRF-CEM
[3] = tested on: MOLT-4
[4] = tested on: Hs-578T
[5] = tested on: UACC-62
[6] = tested on: SNB-75
[7] = tested on: SNB-19
[8] = tested on: HT-29
[9] = tested on: A549
[10] = tested on: NCI-H522
[11] = tested on: HCT-15
[12] = tested on: RXF 393
[13] = tested on: UO-31
[14] = tested on: MDA-N
[15] = tested on: DU-145
[16] = tested on: NCI-H23
[17] = tested on: NCI-H226
[18] = tested on: 786-0
[19] = tested on: SW-620
[20] = tested on: A498

## Cn1c2ccccc2c(=NNc2ccccc2C(=O)O)c2ccccc21
[1]
  GI50: 23.7 µM (inactive)
[2]
  GI50: 13.2 µM (inactive)
[3]
  GI50: 10.9 µM (inactive)
[4]
  GI50: 21.9 µM (inactive)
[5]
  GI50: 19.5 µM (inactive)
[6]
  GI50: 21.1 µM (inactive)
[7]
  GI50: 24.4 µM (inactive)
[8]
  GI50: 17.7 µM (inactive)
[9]
  GI50: 12.9 µM (inactive)
[10]
  GI50: 12 µM (inactive)
[11]
  GI50: 7.87 µM
[12]
  GI50: 12.7 µM (inactive)
[13]
  GI50: 18.4 µM (inactive)
[14]
  GI50: 21.2 µM (inactive)
[15]
  GI50: 27.5 µM (inactive)
[16]
  GI50: 20.9 µM (inactive)
[17]
  GI50: 16.2 µM (inactive)
[18]
  GI50: 27.5 µM (inactive)
[19]
  GI50: 24.4 µM (inactive)

## O=C1/C(=C/Cc2ccco2)N=C(c2ccccc2)N1c1nc2c(Cl)cc(Cl)cc2s1
[1]
  GI50: 27 µM (inactive)
[2]
  GI50: 17.9 µM (inactive)
[3]
  GI50: 1.02 µM (active)
[4]
  GI50: 23.6 µM (inactive)
[5]
  GI50: 27.5 µM (inactive)
[7]
  GI50: 34.3 µM (inactive)
[8]
  GI50: 30.8 µM (inactive)
[20]
  GI50: 15.2 µM (inactive)
[9]
  GI50: 26.4 µM (inactive)
[11]
  GI50: 27.9 µM
[12]
  GI50: 13.4 µM (inactive)
[13]
  GI50: 26.2 µM (inactive)
[14]
  GI50: 20.9 µM (inactive)
[15]
  GI50: 27.4 µM (inactive)
[18]
  GI50: 44.8 µM (inactive)
[19]
  GI50: 39 µM (inactive)

## O=C1N(c2ccccc2)C(=S)/C(=C/c2ccc(Cl)cc2)N1c1ccc(Cl)cc1
[1]
  GI50: 52 µM (inactive)
[2]
  GI50: 18.1 µM (inactive)
[3]
  GI50: 0.923 µM (active)
[4]
  GI50: 27 µM (inactive)
[5]
  GI50: 15.8 µM (inactive)
[6]
  GI50: 12.6 µM (inactive)
[7]
  GI50: 48.4 µM (inactive)
[8]
  GI50: 59.3 µM (inactive)
[20]
  GI50: 79.8 µM (inactive)
[9]
  GI50: > 100 µM (inactive)
[10]
  GI50: 15.9 µM (inactive)
[11]
  GI50: 26.9 µM
[12]
  GI50: 33.2 µM (inactive)
[13]
  GI50: 28.5 µM (inactive)
[14]
  GI50: 32.9 µM (inactive)
[15]
  GI50: 53 µM (inactive)
[16]
  GI50: 44.3 µM (inactive)
[18]
  GI50: 23.2 µM (inactive)
[19]
  GI50: 36.1 µM (inactive)

## Cc1nc2ccccc2n1Cc1nnc(-c2ccccc2)o1
[1]
  GI50: > 100 µM (inactive)
[2]
  GI50: > 100 µM (inactive)
[3]
  GI50: 41.8 µM (inactive)
[4]
  GI50: > 100 µM (inactive)
[5]
  GI50: > 100 µM (inactive)
[6]
  GI50: 46.3 µM (inactive)
[7]
  GI50: > 100 µM (inactive)
[8]
  GI50: 52.5 µM (inactive)
[20]
  GI50: > 100 µM (inactive)
[9]
  GI50: 52.4 µM (inactive)
[10]
  GI50: > 100 µM (inactive)
[11]
  GI50: > 100 µM
[12]
  GI50: 35.9 µM (inactive)
[13]
  GI50: > 100 µM (inactive)
[14]
  GI50: 70.3 µM (inactive)
[15]
  GI50: > 100 µM (inactive)
[16]
  GI50: > 100 µM (inactive)
[18]
  GI50: 38.7 µM (inactive)
[19]
  GI50: 90.2 µM (inactive)

## CC1(C)CN=C(Nc2ccc(Cl)cc2)S1
[1]
  GI50: > 100 µM (inactive)
[2]
  GI50: 74.3 µM (inactive)
[3]
  GI50: 58.5 µM (inactive)
[4]
  GI50: > 100 µM (inactive)
[5]
  GI50: 78.7 µM (inactive)
[6]
  GI50: 70.8 µM (inactive)
[7]
  GI50: > 100 µM (inactive)
[8]
  GI50: 43.1 µM (inactive)
[9]
  GI50: > 100 µM (inactive)
[10]
  GI50: > 100 µM (inactive)
[11]
  GI50: > 100 µM
[12]
  GI50: > 100 µM (inactive)
[13]
  GI50: 37.2 µM (inactive)
[14]
  GI50: > 100 µM (inactive)
[15]
  GI50: > 100 µM (inactive)
[16]
  GI50: 74.6 µM (inactive)
[17]
  GI50: > 100 µM (inactive)
[18]
  GI50: > 100 µM (inactive)
[19]
  GI50: > 100 µM (inactive)

## O=C(n1[nH]c(=O)n(-c2ccc([N+](=O)[O-])cc2)c1=O)C(Cl)(Cl)Cl
[1]
  GI50: > 75 µM (inactive)
[3]
  GI50: > 75 µM (inactive)
[4]
  GI50: > 75 µM (inactive)
[5]
  GI50: > 75 µM (inactive)
[6]
  GI50: > 75 µM (inactive)
[7]
  GI50: > 75 µM (inactive)
[8]
  GI50: > 75 µM (inactive)
[9]
  GI50: > 75 µM (inactive)
[10]
  GI50: > 75 µM (inactive)
[11]
  GI50: > 75 µM
[12]
  GI50: > 75 µM (inactive)
[13]
  GI50: > 75 µM (inactive)
[14]
  GI50: > 75 µM (inactive)
[15]
  GI50: > 75 µM (inactive)
[16]
  GI50: > 75 µM (inactive)
[17]
  GI50: > 75 µM (inactive)
[18]
  GI50: > 75 µM (inactive)
[19]
  GI50: > 75 µM (inactive)

— ChEMBL document CHEMBL1201862, “PubChem BioAssay data set” (2004)
